The results in this text go back to ChEMBL document CHEMBL3045476, “Prediction of antiproliferative activity of some flavone derivatives: QSAR study” (2009).

This experiment concerns SK-HEP1. The experiment in a line: Antiproliferative activity against Homo sapiens (human) SKHEP1 cells. The class given is functional. The note with it: SK-HEP1, read-out: pGI50 (converted).
`CO/N=C(/COc1ccc2c(=O)c(-c3ccccc3)coc2c1)c1ccc(OC)cc1`: the GI50 is 5.29 µM.
The result for `O=c1c(-c2ccccc2)coc2cc(OC/C(=N/O)c3ccccc3)ccc12` reads 6.39 µM; that for `CO/N=C(\C)COc1ccc2c(=O)c(-c3ccccc3)coc2c1`, 6.39 µM.
`O=c1cc(-c2ccccc2)oc2cc(OC/C(=N/O)c3ccc(F)cc3)ccc12`: the GI50 was 2.3 µM.
The result for `CO/N=C(/COc1ccc2c(=O)c(-c3ccccc3)coc2c1)c1ccc(F)cc1` reads 6.09 µM; that for `C/C(COc1ccc2c(=O)c(-c3ccccc3)coc2c1)=N\O`, 7.29 µM.
For the molecule `CO/N=C(/COc1c(-c2ccccc2)oc2ccccc2c1=O)c1ccc(OC)cc1`, the GI50 is 11 µM.
Under `COc1ccc(/C(COc2ccc3c(=O)cc(-c4ccccc4)oc3c2)=N\O)cc1` stands 5.59 µM; under `CO/N=C(/COc1ccc2c(=O)cc(-c3ccccc3)oc2c1)c1ccc(F)cc1`, 3.3 µM.
The result for `O=c1cc(-c2ccccc2)oc2ccc(OC/C(=N/O)c3ccc(F)cc3)cc12` reads 2.8 µM; that for `CO/N=C(/COc1ccc2c(=O)c(-c3ccccc3)coc2c1)c1ccccc1`, 7.39 µM; that for `CO/N=C(/COc1ccc2c(=O)cc(-c3ccccc3)oc2c1)c1ccccc1`, 2 µM.
Under `CO/N=C(/COc1c(-c2ccccc2)oc2ccccc2c1=O)c1ccccc1` stands 7.11 µM; under `O=c1c(-c2ccccc2)coc2cc(OC/C(=N/O)c3ccc(F)cc3)ccc12`, 6.6 µM; under `O=c1c(OC/C(=N/O)c2ccc(F)cc2)c(-c2ccccc2)oc2ccccc12`, 6.9 µM.
On to `C/C(COc1ccc2c(=O)cc(-c3ccccc3)oc2c1)=N\O`, for which the GI50 was 2.8 µM.
The result for `COc1ccc(/C(COc2c(-c3ccccc3)oc3ccccc3c2=O)=N\O)cc1` reads 2.7 µM.
The result for `CO/N=C(/COc1ccc2oc(-c3ccccc3)cc(=O)c2c1)c1ccc(OC)cc1` reads 2 µM; that for `CO/N=C(\C)COc1ccc2c(=O)cc(-c3ccccc3)oc2c1`, 2 µM.
Under `CO/N=C(/COc1ccc2oc(-c3ccccc3)cc(=O)c2c1)c1ccc(F)cc1` stands 7.9 µM; under `C/C(COc1c(-c2ccccc2)oc2ccccc2c1=O)=N\O`, 2.6 µM; under `C/C(COc1ccc2oc(-c3ccccc3)cc(=O)c2c1)=N\O`, 1.9 µM.
As for `COc1ccc(/C(COc2ccc3c(=O)c(-c4ccccc4)coc3c2)=N\O)cc1`, the GI50 was 5.5 µM.
`O=c1c(OC/C(=N/O)c2ccccc2)c(-c2ccccc2)oc2ccccc12`: the GI50 was 7.21 µM.
Under `CO/N=C(/COc1c(-c2ccccc2)oc2ccccc2c1=O)c1ccc(F)cc1` stands 13 µM; under `CO/N=C(/COc1ccc2c(=O)cc(-c3ccccc3)oc2c1)c1ccc(OC)cc1`, 4.79 µM; under `CO/N=C(\C)COc1c(-c2ccccc2)oc2ccccc2c1=O`, 9.2 µM.
Under `CO/N=C(/COc1ccc2oc(-c3ccccc3)cc(=O)c2c1)c1ccccc1` stands 8.2 µM; under `O=c1cc(-c2ccccc2)oc2cc(OC/C(=N/O)c3ccccc3)ccc12`, 2 µM.
